Source: patent publication US20070128217A1 (priority 2003, published 2007)

How the values were obtained:
[1] = system: control sera (pooled serum of ten healthy LUMC hospital workers; commercial negative donor pooled serum from the Dutch bloodbank); assay type: binding, human; parameters: Binding of Control serum LUMC to linear peptides / Binding of Control serum Blood-bank to linear peptides / Binding of Control serum LUMC to looped peptides / Binding of Control Serum Blood-Bank to Looped peptides / Binding of Control serum LUMC to linear peptides of the protein M of SARS-CoV Urbani / Binding of Control serum Blood-bank to linear peptides of the protein M of SARS-CoV Urbani / Binding of Control serum LUMC to looped peptides of the protein M of SARS-CoV Urbani / Binding of Control Serum Blood-Bank to Looped peptides of the protein M of SARS-CoV Urbani: unit not given here
[2] = system: rabbit serum obtained by immunizing a rabbit with the SARS-CoV strain Frankfurt 1; assay type: binding; parameters: Binding of a rabbit serum to linear peptides / Binding of a rabbit serum to looped peptides / Rabbit serum linear peptides / Rabbit serum looped peptides / Binding of a rabbit serum to linear peptides of protein N of SARS-CoV Urbani (Rabbit serum linear peptides) / Binding of a rabbit serum to looped/cyclic peptides of protein N of SARS-CoV Urbani (Rabbit serum looped peptides): unit not given here
[3] = system: antibodies in sera from SARS patients (sera 1a, 1b, 2, 6, 37, 62, London, SARS-yellow, SARS-green); assay type: binding, human; parameters: Binding of serum 6 to linear peptides of protein X1 of SARS-CoV Urbani / Binding of serum 37 to linear peptides of protein X1 of SARS-CoV Urbani / Binding of serum 6 to looped/cyclic peptide (PEPSCAN-ELISA) / Binding of serum 37 to looped/cyclic peptide (PEPSCAN-ELISA) / Binding of serum 37 to looped/cyclic peptides of protein X1 of SARS-CoV Urbani / Binding of serum 6 to linear peptides of protein X2 / Binding of serum 37 to linear peptides of protein X2 / Binding of serum 37 to looped/cyclic peptides of protein X2 of SARS-CoV Urbani / Binding of serum 6 to linear peptides of protein M of SARS-CoV Urbani / Binding of serum 37 to linear peptides of protein M of SARS-CoV Urbani / Binding of serum 6 to looped/cyclic peptides of protein M of SARS-CoV Urbani / Binding of serum 37 to looped/cyclic peptides of protein M of SARS-CoV Urbani / Binding of serum 6 to linear peptides of protein X3 of SARS-CoV Urbani / Binding of serum 37 to linear peptides of protein X3 of SARS-CoV Urbani / Binding of serum 37 to looped/cyclic peptides of protein X3 of SARS-CoV Urbani / Binding of serum 6 to linear peptides of protein X4 of SARS-CoV Urbani / Binding of serum 37 to linear peptides of protein X4 of SARS-CoV Urbani / Binding of serum 37 to looped/cyclic peptides of protein X4 of SARS-CoV Urbani / Binding of serum 6 to linear peptides of protein X5 of SARS-CoV Urbani / Binding of serum 37 to linear peptides of protein X5 of SARS-CoV Urbani / Binding of serum 37 to looped/cyclic peptides of protein X5 of SARS-CoV Urbani / Binding of serum 6 to linear peptides of protein N of SARS-CoV Urbani / Binding of serum 37 to linear peptides of protein N of SARS-CoV Urbani / Binding of serum 6 to linear peptide (PEPSCAN-ELISA) / Binding of serum 1a to looped/cyclic peptides of protein N of SARS-CoV Urbani / Binding of serum 1b to looped/cyclic peptides of protein N of SARS-CoV Urbani / Binding of serum 2 to looped/cyclic peptides of protein N of SARS-CoV Urbani / Binding of serum 6 to looped/cyclic peptides of protein N of SARS-CoV Urbani / Binding of serum 37 to looped/cyclic peptides of protein N of SARS-CoV Urbani / Binding of serum 62 to looped/cyclic peptides of protein N of SARS-CoV Urbani / Binding of serum London to looped/cyclic peptides of protein N of SARS-CoV Urbani / Binding of serum SARS-green to looped/cyclic peptides of protein N of SARS-CoV Urbani: unit not given here

Row | Sequence | Binding of Control Serum Blood-Bank to Looped peptides [1] | Binding of Control serum Blood-bank to linear peptides [1] | Binding of Control serum LUMC to linear peptides [1] | Binding of Control serum LUMC to looped peptides [1] | Rabbit serum linear peptides [2] | Rabbit serum looped peptides [2] | Binding of serum 1a to linear peptides of protein X4 of SARS-CoV Urbani [3] | Binding of serum 1a to looped/cyclic peptides of protein X4 of SARS-CoV Urbani [3] | Binding of serum 1b to linear peptides of protein X4 of SARS-CoV Urbani [3] | Binding of serum 1b to looped/cyclic peptides of protein X4 of SARS-CoV Urbani [3] | Binding of serum 2 to linear peptides of protein X4 of SARS-CoV Urbani [3] | Binding of serum 2 to looped/cyclic peptides of protein X4 of SARS-CoV Urbani [3] | Binding of serum 6 to linear peptides of protein X4 of SARS-CoV Urbani [3] | Binding of serum 6 to looped/cyclic peptides of protein X4 of SARS-CoV Urbani [3] | Binding of serum 37 to linear peptides of protein X4 of SARS-CoV Urbani [3] | Binding of serum 37 to looped/cyclic peptides of protein X4 of SARS-CoV Urbani [3] | Binding of serum 62 to linear peptides of protein X4 of SARS-CoV Urbani [3] | Binding of serum 62 to looped/cyclic peptides of protein X4 of SARS-CoV Urbani [3] | Binding of serum London to linear peptides of protein X4 of SARS-CoV Urbani [3] | Binding of serum London to looped/cyclic peptides of protein X4 of SARS-CoV Urbani [3] | further results
1 | LFLIVAALVFLILCF | 0.7 | 0.5 | 0.4 | 0.4 | 0.3 | 0.4 | 0.6 | 0.8 | 0.5 | 0.4 | 0.3 | 0.7 | 0.4 | 0.3 | 0.6 | 0.5 | 0.6 | 0.5 | 0.7 | 0.2 | Binding of serum SARS-green to linear peptides of protein X4 of SARS-CoV Urbani [3]: 0.6; Binding of serum SARS-green to looped/cyclic peptides of protein X4 of SARS-CoV Urbani [3]: 0.4; Binding of serum SARS-yellow to linear peptides of protein X4 of SARS-CoV Urbani [3]: 0.7; Binding of serum SARS-yellow to looped/cyclic peptides of protein X4 of SARS-CoV Urbani [3]: 0.5
2 | LFLTLIVFTSCELYH | 0.9 | 0.7 | 0.7 | 0.9 | 0.7 | 0.4 | 0.7 | 0.9 | 0.7 | 0.8 | 0.5 | 0.8 | 0.5 | 0.7 | 0.7 | 0.9 | 0.7 | 0.9 | 0.6 | 0.3 | Binding of serum SARS-green to linear peptides of protein X4 of SARS-CoV Urbani [3]: 0.7; Binding of serum SARS-green to looped/cyclic peptides of protein X4 of SARS-CoV Urbani [3]: 0.7; Binding of serum SARS-yellow to linear peptides of protein X4 of SARS-CoV Urbani [3]: 0.6; Binding of serum SARS-yellow to looped/cyclic peptides of protein X4 of SARS-CoV Urbani [3]: 0.6
3 | LGKVLPFHRWHTMVQ | 0.4 | 0.8 | 0.5 | 0.4 | 0.5 | 0.3 |  |  |  |  |  |  |  |  |  |  |  |  |  |  | Binding of serum 1a to linear peptides of protein X5 of SARS-CoV Urbani [3]: 0.7; Binding of serum 1a to looped/cyclic peptides of protein X5 of SARS-CoV Urbani [3]: 0.6; Binding of serum 1b to linear peptides of protein X5 of SARS-CoV Urbani [3]: 0.4; Binding of serum 1b to looped/cyclic peptides of protein X5 of SARS-CoV Urbani [3]: 0.3; Binding of serum 2 to linear peptides of protein X5 of SARS-CoV Urbani [3]: 0.6; Binding of serum 2 to looped/cyclic peptides of protein X5 of SARS-CoV Urbani [3]: 0.2; Binding of serum 6 to linear peptides of protein X5 of SARS-CoV Urbani [3]: 0.5; Binding of serum 6 to looped/cyclic peptides of protein X5 of SARS-CoV Urbani [3]: 0.3; Binding of serum 37 to linear peptides of protein X5 of SARS-CoV Urbani [3]: 0.6; Binding of serum 37 to looped/cyclic peptides of protein X5 of SARS-CoV Urbani [3]: 0.5; Binding of serum 62 to linear peptides of protein X5 of SARS-CoV Urbani [3]: 0.6; Binding of serum 62 to looped/cyclic peptides of protein X5 of SARS-CoV Urbani [3]: 0.3; Binding of serum London to linear peptides of protein X5 of SARS-CoV Urbani [3]: 0.6; Binding of serum London to looped/cyclic peptides of protein X5 of SARS-CoV Urbani [3]: 0.2; Binding of serum SARS-green to linear peptides of protein X5 of SARS-CoV Urbani [3]: 0.4; Binding of serum SARS-green to looped/cyclic peptides of protein X5 of SARS-CoV Urbani [3]: 0.2; Binding of serum SARS-yellow to linear peptides of protein X5 of SARS-CoV Urbani [3]: 0.2; Binding of serum SARS-yellow to looped/cyclic peptides of protein X5 of SARS-CoV Urbani [3]: 0.2
